{
  "source": "patent US20190150439A1",
  "about": "“SOLUBLE LIQUID FORMULATIONS OF QUINCLORAC AMMONIUM SALTS” (BASF SE, priority 2012, published 2019)",
  "origin": "cited, not measured here",
  "conditions": "pH 7 at 20° C.",
  "data": [
    {"compound": "O=C(O)c1c(Cl)ccc2cc(Cl)cnc12", "note": "[Quinclorac, 3,7-dichloro-8-quinolinecarboxylic acid]", "values": [
      {"measurement": "solubility in water", "value": 0.065, "unit": "mg/kg"}
    ]}
  ]
}
